From patent publication US20170305981A1, “SYNTHETIC PEPTIDES” (The University of Chicago, priority 2014, published 2017)
Where “and” joins values, the source holds several entries; their conditions need not be identical. Identical values can stand only once. Entries after “also recorded” stand apart in the source; their conditions may differ.

Tests used:
lipoprotein lipase (LpL) = experiment: Lipoprotein lipase (LpL) in vitro activity assay with fluorogenic TG substrate EnzChek; assay type: biochemical; conditions: for LpL stimulating activity of domain substitution peptides relative to AV199-232: knockout substitutions in AV199-232 domains
Procedure: FIG. 3A-C. Lipoprotein lipase (LpL) activity assay using a fluorogenic TG analog, EnzChek (Invitrogen). The enzyme reaction mix was composed of increasing concentrations of LpL in 100 μl Tris buffered saline (TBS), 1% BSA, pH 7.8, 0.015% Zwittergent 3-14 and 1 μM EnzChek substrate. Reaction was monitored by fluorescence (λex=482 nm, λem=515 nm) and the relative fluorescence units (RFU) against time plotted (A). BODIPY labeled fatty acid (BODIPY-FA) was used to determine product concentration generated with the lipase (B). Structure of the EnzChek substrate (E33955) which was purchased from Invitrogen Inc. (C).
To search for lipase stimulators, a lipase assay was employed using a commercially available fluorogenic-TG substrate (EnzChek) supplied by Molecular Probes (FIG. 3). The protocol was adapted from Basu et al., (Basu et al. (2011) J.Lipid Res. 52, 826-832; herein incorporated by reference in its entirety) with minor modifications in pH and detergent. For in vitro assays, LpL (SIGMA) was diluted to 0.12 μg/ml in 20 mM Tris-HCl, 150 mM NaCl, 1% BSA, 0.015% Zwittergent 3-14, pH 7.8, 1 μM EnzChek substrate, prepared in 96-well black microtiter plates. For some assays the plates were incubates at 37° C. for 10min. Detection was performed in a Synergy H1 Multi-Mode Reader using excitation/emission wavelengths of 482 nm and 515 nm, respectively. […] Moreover, the product produced could be quantified using BODIPY-C12 fatty acids to determine the molar rates of enzyme reaction. Since the assay uses a non-toxic substrate and a low amount of neutral detergent it is possible to use this assay with live cells (FIG. 4). The lipase activities assayed were sensitive to both the removal of lipase (HL) from the surface of hepatocytes (by a heparin pre-wash) and to apolipoproteins present in isolated lipoproteins, VLDL, LDL and HDL preparations.

LpL in THP-1 macrophages = biological target: T1, LpL in THP-1 macrophages (Homo sapiens, UniProt P06858); experiment: Lipase activity in cultures of live THP-1 macrophages; assay type: cell-based; conditions: live THP-1 macrophages known to express LpL
T1 construct: endogenous in cells; host or cells: THP-1 macrophages
T1 sequence (P06858 28-475): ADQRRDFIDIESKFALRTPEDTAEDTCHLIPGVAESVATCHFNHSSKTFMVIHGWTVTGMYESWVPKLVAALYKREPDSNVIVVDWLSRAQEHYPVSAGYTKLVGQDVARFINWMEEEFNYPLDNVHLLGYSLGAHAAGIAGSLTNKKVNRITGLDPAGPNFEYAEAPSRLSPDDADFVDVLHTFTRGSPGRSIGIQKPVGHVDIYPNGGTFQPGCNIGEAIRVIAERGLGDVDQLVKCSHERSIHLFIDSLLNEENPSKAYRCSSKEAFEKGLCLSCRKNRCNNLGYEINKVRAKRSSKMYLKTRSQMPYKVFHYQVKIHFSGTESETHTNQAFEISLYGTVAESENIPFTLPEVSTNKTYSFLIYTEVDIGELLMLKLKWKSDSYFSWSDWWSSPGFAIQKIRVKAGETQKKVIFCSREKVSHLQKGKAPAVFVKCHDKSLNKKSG
Procedure: FIG. 8. Determining the minimum peptide sequence (A) harboring full lipase stimulating activity (B, D). […] Assays were performed by adding 10 μM of peptide to in vitro LpL assays (B) or to hepatocyte (HepG2) cell cultures (D). In 24 well tissue culture plates, cells were incubated for 1 hr at 37° C. in 200 μL TBS, 1.5% BSA, 0.2% zwittergent 3-14, 1μM EnzChek substrate. AV199-232 was also active in cultures of live THP-1 macrophages known to express LpL (C).

LpL [1] = experiment: LpL enzyme kinetics (Vmax, Km) by Michaelis-Menten fitting; assay type: biochemical
Procedure: FIG. 9. […] Lipase reaction was performed with different substrate concentrations (0-25 μM) (A, C, D) to determine the kinetic parameters of LpL enzymatic activity, +/− VLDL (10 μg/ml) and +/− AV199-232 (2.5 μM). (B) The addition of VLDL reduced the enzymes affinity for substrate by 5.3-fold which is consistent with inhibition by apoC-III. […] Kinetic parameters were determined using GraphPad Prism software curve fitting to the Michaelis-Menten enzyme kinetic equation.
The influence of AV199-232 on the kinetic parameters of LpL activity (e.g., Vmax and Km) was investigated (FIG. 9A-B). […] This was due to the apoC-III content of VLDL. […] Also AV199-232 was functional in the presence of apoC-III in VLDL. The effect of different lipoproteins on LpL kinetics was compared (FIG. 9D).

[2] = Heparin binding (circular dichroism on addition of heparin)
Procedure: FIG. 10. AV199-232 is an a-helical peptide that binds heparin. Peptide folding and conformation was analyzed experimentally by circular dichroism spectroscopy (A) and calculated to be ˜42% α-helical which increased to ˜76% on binding heparin.
Given that there appeared to be a periodicity in the sequence of AV199-232 consisting of alternating polar and non-polar residues, the possibility that the peptide was folded into a amphipathic α-helix was investigated (FIG. 10). […] In silico analysis also predicted a high α-helical content. […] The amphipathic nature of the peptide was evident with polar residues and nonpolar residues (domain-L) organized to opposite sides of the helix. Domain-L is responsible for binding to VLDL. Domain-1, domain-2 and domain-H were also identified on the polar side.

VLDL = VLDL binding, complexes isolated by gel filtration on Sepharose CL-4B, then LpL assay
Procedure: VLDL (100 μg) was incubated with AV199-232 (50 μg) and complexes were isolated from free peptide by gel filtration on a Sepharose CL-4B column (FIG. 15A).

Leukocyte-LpL = biological target: T2, Leukocyte-LpL (Homo sapiens, UniProt P06858); experiment: LpL activity in live leukocytes isolated from fresh human blood; assay type: cell-based
T2 construct: endogenous in cells; host or cells: leukocytes isolated from fresh human blood
T2 sequence (P06858 28-475): T1 sequence (P06858 28-475)
Procedure: (§1) The removal of cell surface LpL with heparin reduced activity.
(§2) Plasma contains lipoproteins with apoC-III and ANGPT4, known inhibitors of LpL activity. However, LpL activity in live leukocytes was stimulated by AV199-232 (FIG. 23C). […] AV199-232 was incubated with whole plasma from normal and diabetic/dyslipidemic plasma and then the TG-rich lipoproteins (Lp) were isolated by PEG-8000 precipitation and added to LpL assays (30 μg/ml).

LpL [3] = experiment: LpL activity in the presence of human plasma / plasma TG-rich lipoproteins; assay type: biochemical; conditions: normal and dyslipidemic plasma
Procedure: as §1, §2

[4] = peptides 80 μg/ml preincubated with VLDL 20 μg/ml
[5] = peptide added to LpL without VLDL, 10 μM

## Dom1KO: AV199-232 with domain 1 substitutions R12Q/D30S (ARLSRCVQVLSQKLTLKAKALHARIQQNLSQLRE)
Lipoprotein lipase (LpL)
  LpL stimulating activity of domain substitution peptides relative to AV199-232: significant reduction

## AV199-232: 34-residue peptide, residues 199-232 of apoA-V; AV199-237 shortened by 5 residues (ARLSRCVQVLSRKLTLKAKALHARIQQNLDQLRE; listed as Homo sapiens)
Lipoprotein lipase (LpL); 10 μM, in vitro LpL assays and HepG2 cell cultures
  lipase stimulating activity of the shortened peptide relative to AV199-237: harbored full activity and was actually somewhat more potent; also recorded: enhancement of activity
LpL in THP-1 macrophages
  lipase stimulating activity in THP-1 macrophages: active
LpL [1]; AV199-232 2.5 μM + VLDL 10 μg/ml
  increase of LpL's apparent affinity for substrate (Km improvement): ~8 fold and 7.8 fold
LpL [1]; AV199-232 2.5 μM without VLDL
  changes in the Vmax and Km of LpL: only marginal changes
[2]
  heparin binding: heparin binding activity; also recorded: binds heparin
VLDL; VLDL 100 μg incubated with AV199-232 50 μg
  VLDL binding: binds VLDL
VLDL; void fraction (Vo) of gel filtration added to LpL
  LpL stimulation by the isolated VLDL:AV199-232 complex: effective at stimulating LpL activity; also recorded: stimulates LpL activity
Leukocyte-LpL
  stimulation of LpL activity in live leukocytes: responds; also recorded: stimulated; also recorded: responsive
LpL [3]
  stimulation of LpL activity in the presence of plasma: stimulates LpL activity

## AV-H/K: AV199-232 peptide with H in domain-H replaced with a K (ARLSRCVQVLSRKLTLKAKALKARIQQNLDQLRE; Mutated wild-type peptide)
LpL [3]
  stimulation of LpL activity in the presence of plasma: stimulates LpL

## Dom1(E34K): AV199-232 with E34K substitution in domain 1 (ARLSRCVQVLSRKLTLKAKALHARIQQNLDQLRK)
Lipoprotein lipase (LpL)
  LpL stimulating activity of domain substitution peptides relative to AV199-232: did not influence AV199-232 activity

## SEQ ID NO: 23: AV-H/K with L10F and L29F substitutions (ARLSRCVQVFSRKLTLKAKALKARIQQNFDQLRE; Mutated wild-type peptide)
Lipoprotein lipase (LpL); [4]
  improvement in lipase stimulating activity relative to AV-H/K: about 2 fold

## SEQ ID NO: 22: AV-H/K with L10Q, L21Q and L29Q substitutions (ARLSRCVQVQSRKLTQKAKALKARIQQNQDQLRE; Mutated wild-type peptide)
Lipoprotein lipase (LpL); [4]
  lipase stimulating activity relative to AV-H/K: reduced lipase stimulating activity

## Dom2KO: AV199-232 with domain 2 substitutions K13Q/K17Q (ARLSRCVQVLSRQLTLQAKALHARIQQNLDQLRE)
Lipoprotein lipase (LpL)
  LpL stimulating activity of domain substitution peptides relative to AV199-232: significant reduction

## DomLKO: peptide with domain L substitutions L10Q/L21Q/L29Q (ARLSRCVQVQSRKLTLKAKAQHARIQQNQDQLRE)
Lipoprotein lipase (LpL)
  LpL stimulating activity of domain substitution peptides relative to AV199-232: moderate reduction in activity

## AV250-288: peptide spanning residues 250-288 of apoA-V (DPQMLSEEVRQRLQAFRQDTYLQIAAFTRAIDQETEEVQ)
Lipoprotein lipase (LpL); in the presence of VLDL
  influence on LpL activity: Little or no stimulating activity; also recorded: did not
Lipoprotein lipase (LpL); [5]
  influence on LpL activity: Little or no stimulating activity

## AV199-237: synthetic peptide spanning residues 199-237 of mature human apoA-V (ARLSRCVQVLSRKLTLKAKALHARIQQNLDQLREELSRA; listed as Homo sapiens)
Lipoprotein lipase (LpL); in the presence of VLDL
  influence on LpL activity: exceeded that seen with an apoC-II peptide (C-II50-79); also recorded: stimulated LpL activity in the presence of VLDL
Lipoprotein lipase (LpL); [5]
  influence on LpL activity: no change in activity; also recorded: did not increase enzyme activity
Lipoprotein lipase (LpL); peptide incubated with VLDL before adding to LpL, 10 μM
  stimulation of LpL activity: ~4 fold
